According to patent US20120101121A1, “DRUG DEMONSTRATING ANXIOLYTIC EFFECT BASED ON HYDROGENATED PYRIDO (4,3-B) INDOLES, ITS PHARMACOLOGICAL COMPOUND AND APPLICATION METHOD” (Medivation Neurology ,Inc., priority 2007, published 2012):

Columns and labels:
white outbred male rats [1] = experiment: Elevated plus-maze (EPM) in rats; conditions: for Latent time / Number of entries into bright arms / Number of entries into dark arms / Time in bright arms / Total number of crossings: 40 min after dosing, 5 min observation
Method: The model is based on stress and fear, which appear in animals while displaying orientation-investigative behavior and burrowing reflex under the complicated conditions of elevated plus-maze (novelty of surroundings, fear of height and illumination).
EPM for rats is performed in a chamber consisting of four compartments formed by the crossing of two strips measuring 50×10 cm. Two opposing compartments have vertical walls 40 cm high (protected dark arms), while two others (unprotected open bright arms) are free from protective walls. The maze is elevated 50 cm off the floor. At the center of the chamber where the two strips cross, there is a central platform measuring 10×10 cm. Rats were placed on the central platform with their tails facing an open bright arm. Time remaining on the central platform, time spent by the animals inside the open arms, and the number of entries into open and closed arms were recorded. The total observation time for each animal was 5 minutes. The main criterion of anxiolytic effect is the measure of time spent in the open bright arm of the setup. The number of crossings the central platform (number of entries into the dark and bright arms of the maze and the sum thereof) was used to estimate the effect of compounds on orientation-investigative behavior and motion activity of rats.
Experiments were conducted using white outbred male rats weighing 240 g to 280 g. Before beginning the test, experimental animals were randomly separated into groups of at least 10 rats. […] Rats in the control group received 0.2 ml water per 100 g mass administered intraperitoneally. Data was recorded beginning forty minutes after administration of the compounds.

white outbred male rats [2] = experiment: Open field test under stress; conditions: for Exits to the center of the field / Horizontal activity / Surveyed holes / Vertical activity: 40 min after dosing, 3 min observation
Method: The “open field” test uses a method of creating stress based on a rat's fear of new surroundings, open space and bright illumination.
An open field setup used in this study consisted of a one meter square box (1 m×1 m×1 m) with a clear top. The floor of the chamber was uniformly divided by lines into 9 squares, with 16 2.5 cm diameter holes. Before the experiment, rats were kept in the dark for 10 minutes, after which they were placed onto one of the peripheral squares of the open field. […] During the experiment the following information was recorded: the number of crossed squares on the periphery and in the center (separately), the number of vertical stands, the number of times holes were surveyed, and the number of exits to the center of the open field.
The main indicator of anxiolytic effect of the drugs was the measure of number of exits by the rat to the center of illuminated field. Increase or decrease in the number of horizontal or vertical movements reflected sedative or stimulating effect of the drug, while the number of holes surveyed reflects orientation-investigative behavior of the rat.
Experiments were conducted using white outbred male rats weighing 240 g to 280 g. Before the beginning of the test, experimental animals were randomly separated into groups containing at least 10 rats. […] Rats in the control group received 0.2 ml water per 100 g mass administered intraperitoneally. Data was recorded beginning 40 minutes after administering the compounds.

outbred white male rats = experiment: Vogel conflict situation test (punishable drinkings); type: in vivo, rat; conditions: for No. of punishable drinkings: 40 min before test, 10 min registration
Method: 93-113). Such conflict situations most frequently lead to stress and neurotic diseases.
The tests were conducted using outbred white male rats with body weights between 220 g and 250 g. […] The conflict situation was created by suppressing the drinking reflex during water consumption from the drinking tube using algesic electric stimulus (i.e., electric shock causing pain). Thus, the Vogel conflict method is based on the conflict of two motivations: drinking and defensive. Thus, the animal fears punishment when attempting to satisfy its thirst, and that fear suppresses typical animal behavior. The animal cannot satisfy its thirst, creating an imbalance between what is desirable and what is real, thereby resulting in a stressful situation, accompanied by anxiety and fear of receiving an additional algesic electric stimulus. If a test compound has anxiolytic effect, it will enable the animal to overcome anxiety and fear of the punishment factor, restoring the ability to drink despite the possibility of receiving additional algesic electric stimuli, measured as an increase in incidents of punishable responses, i.e., drinking, despite the continued risk of receiving algesic electric stimuli.
The experimental setup consists of three parts: 4 experimental chambers, an electronic unit and a counting device. The experimental chamber measures 275×275×450 mm and is made of Plexiglas. It is installed on a standard electrode floor made of 4 mm diameter stainless steel rods spaced by 8-10 mm apart. Attached to the side wall of each chamber is a standard drinking tube attached to a glass container including a stainless steel nipple. In the device, the drinking tube is installed within common space of the chamber, not in the darkened section. The nipple extends 2 cm into the chamber at a height of 5 cm from the floor. The reason for such arrangement is that once exposed to a new environment, the animals instinctively attempt to hide in the dark section, and therefore may accidentally find a drinking tube, not as a consequence of purposeful search to satisfy the motivation. The electrode floor and the nipple of the drinking tube are connected to the electronic unit. The electronic unit contains current stabilizers (one per channel, which provides the possibility of independent current regulation), output signal generators for the counting device and delay generators for supplying punishing current to the drinking tube during the day of the experiment. That arrangement permits registration of non-punishable drinkings while establishing a drinking habit (trainings without supplying current to the drinking tubes), administration of a punishment current, and recordation of signals from punishable drinkings during the experiment.
The counting device enables registration of non-punishable drinkings during training and punishable drinkings during the experiment. Registration of readings was conducted using Pentium III personal computer with a 550 MHz C.P.U., a special device for converting output signals from the electronic unit into standard pulses suitable for inputting to the computer via a serial port, and a program written in BASIC (Beginner's All-Purpose Symbolic Instruction Code) for recording events and time intervals into disc files. The data accumulated in these files was later analyzed with the statistical package Statistica® for Windows®.
The experiment was conducted for 3 days. On the first day, the animals were completely deprived of water. On the second day, i.e., after 24-hours without water, animals were allowed to establish a habit of taking water from the drinking tube. To achieve this, animals were placed in the experimental chamber for 5 minutes. Typically, each animal surveyed the chamber and after a period of time found a drinking tube and started to drink. On the […] day, a weak current of 50 μA was applied to the drinking tube and the chamber floor. […]

AMPA receptors = conditions: cerebral neurons in rats; cited from earlier work
SAM-P/10 mice = experiment: Elevated plus-maze in SAM-P/10 mice with genetically determined anxiety; type: in vivo, mouse; conditions: 11-month old SAM-P/10 mice; for Latent time / Number of entries into bright arms / Number of entries into dark arms / Time in bright arms / Total number of crossings: 40 min prior to testing, 5 min observation
Text: One of the modern methods of studying the anxiolytic effect of drugs uses a mouse strain with an increased level of anxiety. This study utilized mice of the SAM-P/10 line (Takeda, T., et al., “Senescence-Accelerated Mouse (SAM): A Novel Murine Model of Accelerated Senescence,” J. Amer. Geriatr. Soc., 1991, v. 39, pp. 911-919) weighing between 26 g and 31 g, in which, among other changes, a genetically determined anxiety is observed. […] Those symptoms actively accumulate beginning from the age of 6-months (accelerated aging) (Miyamoto, M., “Indicators of age-related behavioral changes in Senescence-Accelerated Mouse SAMP8 and SAMP10,” Exp. Gerontol., 1997, v. 32, pp. 139-148; and Shimada, A., et al., “Age-related deterioration in conditional avoidance task in the SAM-P/10 mouse, an animal model of spontaneous brain atrophy,” Brain Res., 1993, v. 608, pp. 266-272).
This study utilized SAM-P/10 (Senescence-Accelerated Mouse P10) mice in two age groups—3-months and 11-months old. A group of 3-month old animals and a group of 11-month old animals were each divided into three subgroups: one group received Dimebon at a dose of 0.05 mg/kg, the second group received Dimebon at a dose of 2 mg/kg, and the third group received physiological saline. All substances were administered intraperitoneally 40 minutes prior to testing in the amount of 0.1 ml per 10 g of mouse weight. This study was conducted during the first half of the day from 10:00 a.m. to 2:00 p.m.
The maze is elevated 30 cm off the floor. […] Time spent by mice in the open arms of the maze was used as a main indicator of anxiety level.

NMDA receptors = conditions: cerebral neurons in rats; cited from earlier work

CN1C(=O)CN=C(c2ccccc2)c2cc(Cl)ccc21 [Diazepam ®, reference compound]
Sedative effect in elevated plus-maze (in words) (white outbred male rats [1]; 2 mg/kg i.p.): sedative, depriming effect | Latent time (white outbred male rats [1]; 2.0 mg/kg i.p.): 7.68 ± 2.0 s | Number of entries into bright arms (white outbred male rats [1]; 2.0 mg/kg i.p.): 2.12 ± 1.08 | Number of entries into dark arms (white outbred male rats [1]; 2.0 mg/kg i.p.): 2.20 ± 0.47 | Time in bright arms (white outbred male rats [1]; 2.0 mg/kg i.p.): 25.6 ± 6.87 s | Total number of crossings (white outbred male rats [1]; 2.0 mg/kg i.p.): 4.32 ± 1.01 | Effect on horizontal and vertical motion activity within the open field (in words) (white outbred male rats [2]; 2 mg/kg): significantly suppressed | Exits to the center of the field (white outbred male rats [2]; 2 mg/kg i.p.): 1.8 ± 0.3 | Horizontal activity (white outbred male rats [2]; 2 mg/kg i.p.): 10.2 ± 1.4 | Surveyed holes (white outbred male rats [2]; 2 mg/kg i.p.): 6.5 ± 1.9 | Vertical activity (white outbred male rats [2]; 2 mg/kg i.p.): 3.4 ± 1.3 | No. of punishable drinkings (outbred white male rats; 2.0 mg/kg i.p.): 372.71 ± 27.81 | Side effects at the anxiolytic dose (in words) (outbred white male rats; therapeutic dose of 2 mg/kg): sedation, reduction in motion activity and impaired coordination

Cc1ccc2c(c1)c1c(n2CCc2ccc(C)nc2)CCN(C)C1 [Dimebon, 2,8-dimethyl-5-[2-(6-methyl-3-pyridyl)ethyl]-2,3,4,5-tetrahydro-1H-pyrido[4,3-b]indole]
Effect on transmembrane currents caused by activation of the AMPA receptors (AMPA receptors): potentiates | Time spent inside the open arms relative to control (white outbred male rats [1]; 0.1 mg/kg i.p.): nearly five times as long as the control | Latent time (white outbred male rats [1]; 0.1 mg/kg i.p.): 3.43 ± 0.53 s | Number of entries into bright arms (white outbred male rats [1]; 0.1 mg/kg i.p.): 1.86 ± 1.00 | Number of entries into dark arms (white outbred male rats [1]; 0.1 mg/kg i.p.): 5.86 ± 1.53 | Time in bright arms (white outbred male rats [1]; 0.1 mg/kg i.p.): 20.00 ± 7.75 s | Total number of crossings (white outbred male rats [1]; 0.1 mg/kg i.p.): 7.71 ± 2.25 | Increase in the number of entries into the open arms (white outbred male rats [1]; 2 mg/kg i.p.): more than twice | Latent time (white outbred male rats [1]; 2.0 mg/kg i.p.): 2.93 ± 0.41 s | Number of entries into bright arms (white outbred male rats [1]; 2.0 mg/kg i.p.): 4.25 ± 1.18 | Number of entries into dark arms (white outbred male rats [1]; 2.0 mg/kg i.p.): 7.10 ± 3.21 | Time in bright arms (white outbred male rats [1]; 2.0 mg/kg i.p.): 26.34 ± 8.12 s | Total number of crossings (white outbred male rats [1]; 2.0 mg/kg i.p.): 11.60 ± 3.30 | Increase in total number of crossings (white outbred male rats [1]; 2 mg/kg i.p., P≦0.05): 2 times | Time spent in the open, unprotected arms relative to control (in words) (SAM-P/10 mice; 0.05 mg/kg): doubled | Latent time (SAM-P/10 mice; 0.05 mg/kg i.p.): 7.5 ± 1.5 s | Number of entries into bright arms (SAM-P/10 mice; 0.05 mg/kg i.p.): 1.9 ± 1.0 | Number of entries into dark arms (SAM-P/10 mice; 0.05 mg/kg i.p.): 5.86 ± 1.53 | Time in bright arms (SAM-P/10 mice; 0.05 mg/kg i.p.): 8.7 ± 3.3 s | Total number of crossings (SAM-P/10 mice; 0.05 mg/kg i.p.): 11.7 ± 1.5 | Increase in the number of entries into the open arms (SAM-P/10 mice; 2 mg/kg): more than 4 fold | Increase in the time spent in the open arms (SAM-P/10 mice; 2 mg/kg): more than 4 fold | Latent time (SAM-P/10 mice; 2.0 mg/kg i.p.): 6.0 ± 1.4 s | Number of entries into bright arms (SAM-P/10 mice; 2.0 mg/kg i.p.): 4.2 ± 1.1 | Number of entries into dark arms (SAM-P/10 mice; 2.0 mg/kg i.p.): 7.10 ± 3.21 | Time in bright arms (SAM-P/10 mice; 2.0 mg/kg i.p.): 17.7 ± 5.2 s | Total number of crossings (SAM-P/10 mice; 2.0 mg/kg i.p.): 18.1 ± 5.3 | Exits to the center of the field (white outbred male rats [2]; 0.1 mg/kg i.p.): 0.8 ± 0.3 | Horizontal activity (white outbred male rats [2]; 0.1 mg/kg i.p.): 21.7 ± 5.9 | Surveyed holes (white outbred male rats [2]; 0.1 mg/kg i.p.): 12.3 ± 1.7 | Vertical activity (white outbred male rats [2]; 0.1 mg/kg i.p.): 7.8 ± 1.3 | Exits to the center of the field (white outbred male rats [2]; 2 mg/kg i.p.): 1.5 ± 0.2 | Horizontal activity (white outbred male rats [2]; 2 mg/kg i.p.): 20.3 ± 6.1 | Surveyed holes (white outbred male rats [2]; 2 mg/kg i.p.): 11.2 ± 2.6 | Vertical activity (white outbred male rats [2]; 2 mg/kg i.p.): 6.9 ± 3.2 | Exits to the center of the field (white outbred male rats [2]; 5 mg/kg i.p.): 2.2 ± 0.3 | Horizontal activity (white outbred male rats [2]; 5 mg/kg i.p.): 19.2 ± 2.4 | Surveyed holes (white outbred male rats [2]; 5 mg/kg i.p.): 13.5 ± 1.9 | Vertical activity (white outbred male rats [2]; 5 mg/kg i.p.): 9.3 ± 2.4 | Effect on number of horizontal and vertical movements and surveyed holes (in words) (white outbred male rats [2]; doses of 0.1, 2 and 5 mg/kg): did not cause a decrease | Anxiolytic effect in the open field test (in words) (white outbred male rats [2]; doses of 2 and 5 mg/kg): significant, pronounced anxiolytic effect | Effect on NMDA receptors (NMDA receptors): blocking | No. of punishable drinkings (outbred white male rats; 0.05 mg/kg i.p.): 171.31 ± 15.67 | No. of punishable drinkings (outbred white male rats; 0.1 mg/kg i.p.): 261.18 ± 29.74 | No. of punishable drinkings (outbred white male rats; 2.0 mg/kg i.p.): 354.25 ± 32.49 | No. of punishable drinkings (outbred white male rats; 5.0 mg/kg i.p.): 405.33 ± 26.35 | Change in punishable drinkings versus control (in words) (outbred white male rats; dose range 0.1 to 5 mg/kg i.p.): statistically significant increase | Sedative and muscle relaxant side effects (in words) (outbred white male rats; doses 0.1-5.0 mg/kg): lacks the sedative and muscle relaxant side effects
